Data from patent publication US20050272738A1, “Combined treatment with oxaliplatin and an epidermal growth factor receptor kinase inhibitor” (priority 2004, published 2005).
Values joined by “and” are separate entries in the source; they are usually repeats but may differ in a detail not shown here. Equal entries are not always repeated. Where two headings read alike, the source gives them in different places.

How the values were obtained:
[1] = Maximum tolerated dose / tolerability of Tarceva in nude mice (MTD study and previous efficacy studies); assay type: in vivo, naïve female nude mice
Description: Preliminary studies were performed in naïve female nude mice to determine the maximum tolerated dose (MTD) of Tarceva™. The MTD was defined as a dose that renders <20% body weight loss and no death in a 14 day study. […] Based on literature, a dosage for oxaliplatin of 10 mg/kg, once a week intraperitoneal was adopted in the study (Cividalli A, et al. (2002) Int. J. Radiat. Oncol. Biol. Phys. 52(4):1092-1098).

[2] = tested on: LoVo human colon xenograft; assay: Anti-tumor efficacy in LoVo human colorectal xenograft in nude mice (experiments 525 and 540); assay type: in vivo, female athymic nu/nu mice
Source text: The goal of this study is to assess the anti-tumor efficacy of the small molecule epidermal growth factor receptor inhibitor (EGFRi) Tarceva™ in combination with oxalipaltin on LoVo colorectal human xenograft, grown in female athymic nu/nu mice. Oxaliplatin is an agent that is currently used clinically in the treatment of colorectal cancer alone and in combination with other chemotherapeutic agents and/or radiation, depending on the stage of disease. In this study, the drugs were combined at their respective maximum tolerated dose (MTD) and also combined together at sub-optimal doses. All doses included in the combination groups were also included in the study as monotherapy arms. The attempt was to achieve maximum efficacy/regression without increased toxicity.
(§1) The health of all animals was determined daily by gross observation of experimental animals and by the analyses of blood samples of sentinel animals that were housed on the shared shelf racks. All animals were allowed to acclimate and recover from any shipping related stress for one week prior to experimental manipulation. […] Cages, bedding and water bottles were autoclaved before use and were changed weekly. […] All in vivo experiments were performed in accordance with protocols approved by the Roche Animal Care and Use Committee (RACUC). The Roche animal care facility is fully accredited by the American Association for the Accreditation of Lab Animal Care (AAALAC).
LoVo cells were grown in F-12K+20% FBS (not heat inactivated) and harvested. 5×10^6 cells/0.2 ml/mouse in PBS (Phosphate Buffered Saline) were implanted subcutaneously in the right flank on Aug.
Formulated compound was made up in one batch for the entire 3 week study.
Oxaliplatin was provided in clinical form. […] An aliquot of the stock vial solutions was taken for each dose group representing the drug needed for that group for the entire study duration and diluted out further with sterile saline, to provide a solution that renders a 0.2 ml dosing volume for each individual animal.
For study 540, animals were randomized according to tumor volume on day 17 post tumor implantation so that all groups had similar starting mean tumor volumes of 100-150 mm^3.
For efficacy study 540, treatment began on Sep. […] Tarceva™ was administered using a 1 cc syringe and 18-gauge gavage needles (0.2 ml/animal). Oxaliplatin was administered ip using a 1-cc syringe and 26-gauge needle (0.2 ml/animal). […] Treatment ended on Sep. […] No end of study drug exposure analysis was performed on this study.
(§2) Tumor measurements and mouse weights were taken two-three times per week for LoVo. All animals were individually followed throughout the experiment.
Efficacy data was graphically represented as the mean tumor volume+standard error of the mean (SEM).
Tumor volume (in cubic millimeters) was calculated using the ellipsoid formula: (D×(d2))/2 • where ‘D’ represents the large diameter of the tumor, and ‘d’ represents the small diameter.
In some cases, tumor regression and/or percent change in tumor volume was calculated using the formula: ((T−T0)/T0)×100 • where ‘T’ represents mean tumor volume of the treated group at a particular day and ‘T0’ represents mean tumor volume of the same treated group at initiation of treatment.
Statistical analysis was determined by the rank sum test and One Way Anova and a post-hoc Bonferroni t-test (SigmaStat, version 2.0, Jandel Scientific, San Francisco, Calif.).

[3] = Toxicity in LoVo efficacy study 540 (body weight, deaths, clinical signs); assay type: in vivo, female nude mice; conditions: Tarceva 100 mg/kg (Group 2)
Description: as §1
For efficacy study 540, treatment began on Sep. […] Tarceva™ was administered using a 1 cc syringe and 18-gauge gavage needles (0.2 ml/animal). Oxaliplatin was administered ip using a 1-cc syringe and 26-gauge needle (0.2 ml/animal). All groups were treated q7d for 3 weeks (total 3 injections). Treatment ended on Sep. […] No end of study drug exposure analysis was performed on this study.
as §2

colorectal cancer = conditions: cited from earlier work
HCT116 tumor model = conditions: HCT116 model (data not shown)
[4] = Tarceva 100 mg/kg qd, LoVo, study 540
[5] = oxaliplatin 5 mg/kg q7d ip, LoVo, study 540
[6] = oxaliplatin 10 mg/kg q7d ip, LoVo, study 540

Compound: C#Cc1cccc(Nc2ncnc3cc(OCCOC)c(OCCOC)cc23)c1 [Tarceva™, [6,7-bis(2-methoxyethoxy)-4-quinazolin-4-yl]-(3-ethynylphenyl) amine]
- maximum tolerated dose (MTD) ([1]; CMC/Tween formulation, 14 day study, MTD = <20% body weight loss and no death): 100 mg/kg qd
- toxicity at 200 mg/kg qd ([1]; CMC/Tween formulation, MTD study): showing toxicity
- tolerability at 150 mg/kg once a day ([1]; CMC/Tween, 3 weeks, previous efficacy studies): tolerated well
- tumor growth inhibition ([2]; Tarceva 25 mg/kg qd, LoVo, across experiments): 53-79%
- % T/C ([2]; Tarceva 25 mg/kg qd, LoVo, study 540): 47%
- tumor growth inhibition ([2]; Tarceva 25 mg/kg qd, LoVo, study 540, day 39 post tumor implant): 53%
- % T/C [2, 4]: 2%
- number of partial regressions [2, 4]: four
- partial regressions (percent, in brackets) [2, 4]: 16% and 7%
- tumor growth inhibition (TGI) ([2]; Tarceva 100 mg/kg qd, LoVo, study 540, day 39 post tumor implant): 98%
- tumors partially regressed ([2]; Tarceva 100 mg/kg, LoVo, experiments 525 and 540): 40-60%
- tumor growth inhibition (TGI) ([2]; erlotinib 25 mg/kg monotherapy, LoVo (summary value)): 79%
- mice showing partial regressions (PR) ([2]; erlotinib 100 mg/kg monotherapy, LoVo): 6/10
- tumor growth inhibition (TGI) ([2]; erlotinib 100 mg/kg monotherapy, LoVo, experiment 525): > 100%
- clinical signs [3]: classic reddening of the skin

Compound: O=C(O)C(=O)O.[NH-][C@@H]1CCCC[C@H]1[NH-].[Pt+2] [Oxaliplatin]
- response rates (colorectal cancer; combined with 5-FU and leucovorin, first-line treatment for colorectal cancer): 25-40%
- tumor growth inhibition (TGI) (HCT116 tumor model; oxaliplatin 5 mg/kg): 21%
- tumor growth inhibition (TGI) (HCT116 tumor model; oxaliplatin 10 mg/kg): 26%
- % T/C [2, 5]: 67%
- tumor growth inhibition (TGI) [2, 5]: 33%
- % T/C [2, 6]: 61%
- tumor growth inhibition (TGI) [2, 6]: 39%

Compound: O=c1[nH]cc(F)c(=O)[nH]1 [5-fluorouracil]
- response rates (colorectal cancer; single-agent treatment, advanced colorectal cancer): about 10%
